Reference: patent US7671077B2, “Neuroprotective small organic molecules, compositions and uses related thereto” (priority 2004, dated 2010)
pEC50: −log10 of the molar value.

Test system: midbrain dopaminergic neurons
Experiment: Dopamine (DA) uptake assay in primary midbrain cultures
Assay type: cell-based, rat
Details: for activity at 1.25 µM: compound concentration 1.25 μM; for activity at 0.6 µM: compound concentration 0.6 μM; for activity at 5 µM: compound concentration 5 μM; for activity at 2.5 µM: compound concentration 2.5 μM; for activity at 10 µM: compound concentration 10 μM; for activity at 20 µM: compound concentration 20 μM; for activity at 40 µM: compound concentration 40 μM; for cytotoxicity in midbrain culture: 20 μM; for pEC50: FIG. 36, read-out: half-maximal effective concentration (EC50) for DA uptake stimulation
Experimental: Primary midbrain cultures were prepared from rat embryo ventral mesencephalon as described previously by Lin et al (1994). In brief, rostral mesencephalic tegmentum of embryonic day 16 rat embryos was collected in DMEM/F12 (Hyclone SH30023.01) containing 2 mM glutamine on ice, The tissue was treated with 0.1% trypsin in Hanks' balanced salt solution (HBSS, Gibco 14175-095) for 15 min at 37° C. and dissociated mechanically by mild trituration with a fire-polished glass pipet in growth medium plus 2% heat-inactivated fetal bovine serum (FBS). The growth medium consisted of equal volumes of Dulbecco's minimal essential medium DMEM (Gibco 12100-046) and HAM's F12 nutrient mixture (Gibco 21700-075) supplemented with 33 mM glucose, 13 mM sodium bicarbonate, 5 mM HEPES, 2 mM glutamine, 25 μg/ml insulin, 100 μg/ml transferrin, 60 μM putrescine, 20 nM progesterone, 30 nM sodium selenite, 5 U/ml penicillin G and 5 μg/ml streptomycin. 24-well tissue culture plate was coated by adding 15 μg/ml poly-1-ornithine hydrobromide solution at 0.5 ml/well, incubated at room temperature for 1 hr. The coating solution was removed and the well washed 3 times with distilled water and one wash with HBSS. The dissociated cells were plated onto polyornithine-coated wells at 250,000-350,000 trypan blue-excluding viable cells per well in 500 μl of above medium containing 1% FBS. After 3 h when most of the cells had adhered to the bottom of the well, the medium was replaced with 500 μl of fresh medium without FBS. A serial dilution of the sample to be assayed for trophic activity was added to each well in duplicate at the time of medium change or within 24 h thereafter. Unless otherwise stated, cultures were incubated at 37° C. without any further medium change up to 7 days. Primary hindbrain cultures were prepared as described for the midbrain cultures except that the rostral raphe region (instead of the rostral mesencephalon) was dissected and trypsinized for 20 (instead of 15) min.
[^3H]DA uptake was measured in cultures at day 7, and all the solutions were maintained at 37° C. The growth medium was removed, and the cultures were rinsed twice with 0.25 ml of uptake buffer, which consists of HBSS (Gibco 11201-092) supplemented with 28 mM glucose, 15 mM HEPES, 1 mM ascorbic acid (an antioxidant), and […] pargyline (a monoamine oxidase inhibitor). The cultures were then incubated with 0.25 ml of fresh uptake buffer containing 50 nM [^3H]DA (NEN/DuPont) for 20 min at 37° C. [^3H]DA uptake was stopped by removing the incubation mixture, and cells were then washed twice with 0.5 ml of the uptake buffer at room temperature. To release [^3H]DA from the cells, the cultures were lysed with 0.2 ml of 0.1 N NaOH for 1 h at room temperature, the lysate was then added to 1 ml of Microscint-20 (Packard 6013621), and counted for radioactivity in a microplate scintillation counter (Packard TopCount, NXT). Background values were obtained by adding to the uptake buffer 0.5 mM GBR-12909, a specific inhibitor of the high-affinity uptake pump of the dopaminergic neurons, and were usually <5% of the ^3H uptake in untreated control cultures. Forskolin (Fk, 25 μM) was employed as a positive control.

[1] = Rattus norvegicus, Neuron, midbrain culture, read-out: DA uptake % of control
[2] = Rattus norvegicus, Neuron, midbrain culture

## O=C(/C=C/c1cc(F)ccc1C(F)(F)F)Nc1ccc(S(=O)(=O)Nc2nccs2)cc1 [L″]
[1]
  activity at 1.25 µM: 375%

## O=C(/C=C/c1cccc(Cl)c1)Nc1ccc(S(=O)(=O)Nc2nccs2)cc1 [M]
Rattus norvegicus, Neuron, compound concentration 0.7 μM, midbrain culture, read-out: DA uptake % of control
  activity at 0.7 µM: 120%

## O=C(/C=C/c1ccccc1Cl)Nc1ccc(S(=O)(=O)N2CCCCC2)cc1 [M′]
[1]
  activity at 0.6 µM: 145%

## O=C(/C=C/c1cccc(O)c1)Nc1ccc(S(=O)(=O)Nc2ccccn2)cc1 [M′′′]
[1]
  activity at 5 µM: 170%

## O=C(/C=C/c1cccc(Br)c1)Nc1ccc(S(=O)(=O)Nc2nccs2)cc1 [M′′′′]
[1]
  activity at 2.5 µM: 190%

## O=C(/C=C/c1ccccc1C(F)(F)F)Nc1ccc(S(=O)(=O)Nc2nccs2)cc1 [M″]
[1]
  activity at 1.25 µM: 280%

## O=C(/C=C/c1ccc(Oc2ccccc2)cc1)Nc1ccc(S(=O)(=O)Nc2nccs2)cc1 [N]
[1]
  activity at 2.5 µM: 170%

## Cc1ccc(/C=C/C(=O)Nc2ccc(S(=O)(=O)Nc3onc(C)c3C)cc2)cc1 [N′]
[1]
  activity at 2.5 µM: 155%

## COc1cccc(/C=C/C(=O)Nc2ccc(S(=O)(=O)Nc3ccccn3)cc2)c1 [N′′′]
[1]
  activity at 10 µM: 180%

## O=C(Nc1ccc(S(=O)(=O)Nc2nccs2)cc1)c1cc2ccccc2s1 [N′′′′]
[1]
  activity at 2.5 µM: 170%

## O=C(/C=C/c1ccoc1)Nc1ccc(S(=O)(=O)Nc2nccs2)cc1 [N″]
[1]
  activity at 20 µM: 240%

## O=C(/C=C/c1ccc(F)cc1)Nc1ccc(S(=O)(=O)Nc2nccs2)cc1 [O]
[1]
  activity at 20 µM: 240%

## Cc1ccc(/C=C/C(=O)Nc2ccc(S(=O)(=O)Nc3nc(C)cc(C)n3)cc2)cc1 [O′]
[1]
  activity at 2.5 µM: 150%

## O=C(/C=C/c1ccccc1O)Nc1ccc(S(=O)(=O)Nc2ccccn2)cc1 [O′′′]
[1]
  activity at 10 µM: 150%

## O=C(Nc1ccc(S(=O)(=O)Nc2nccs2)cc1)/C(F)=C/c1ccccc1 [O′′′′]
[1]
  activity at 10 µM: 200%

## O=C(/C=C/c1ccc(Br)cc1)Nc1ccc(S(=O)(=O)Nc2nccs2)cc1 [O″]
[1]
  activity at 2.5 µM: 290%

## O=C(Nc1ccc(S(=O)(=O)Nc2nccs2)cc1)c1ccc(Br)cc1 [P]
[1]
  activity at 5 µM: 160%

## CCCOc1ccc(/C=C/C(=O)Nc2ccc(S(=O)(=O)Nc3nccs3)cc2)cc1OC [P′]
[1]
  activity at 1.25 µM: 210%

## O=C(/C=C/c1ccccc1O)Nc1ccc(S(=O)(=O)Nc2nccs2)cc1 [P′′′]
[1]
  activity at 10 µM: 150%

## O=C(/C=C/c1ccccc1[N+](=O)[O-])Nc1ccc(S(=O)(=O)Nc2nccs2)cc1 [P′′′′]
[1]
  activity at 2.5 µM: 150%

## COc1ccccc1/C=C/C(=O)Nc1ccc(S(=O)(=O)Nc2ccccn2)cc1 [P″]
[1]
  activity at 5 µM: 200%

## COc1ccc(/C=C/C(=O)Nc2ccc(S(=O)(=O)Nc3cc(C)nc(C)n3)cc2)cc1Br [Q]
[1]
  activity at 2.5 µM: 140%

## O=C(CCN1C(=O)S/C(=C\c2ccccc2)C1=O)Nc1ccc(S(=O)(=O)Nc2nccs2)cc1 [Q′]
[1]
  activity at 5 µM: 180%

## O=C(/C=C/c1ccccc1)Nc1ccc(S(=O)(=O)Nc2nnc[nH]2)cc1 [Q′′′]
[1]
  activity at 5 µM: 170%

## O=C(/C=C/c1ccc(F)cc1C(F)(F)F)Nc1ccc(S(=O)(=O)Nc2nc[nH]n2)cc1 [Q″]
[1]
  activity at 2.5 µM: 270%

## Cc1ccc(C(=O)Nc2ccc(S(=O)(=O)Nc3nccs3)cc2)cc1 [R]
[1]
  activity at 20 µM: 140%

## COc1ccc(/C=C2\SC(=O)N(CCC(=O)Nc3ccc(S(=O)(=O)Nc4nccs4)cc3)C2=O)cc1 [R′]
[1]
  activity at 2.5 µM: 155%

## COc1cccc(/C=C/C(=O)Nc2ccc(S(=O)(=O)Nc3nnc[nH]3)cc2)c1 [R′′′]
[1]
  activity at 1.25 µM: 150%

## CCOc1ccccc1/C=C/C(=O)Nc1ccc(S(=O)(=O)Nc2nccs2)cc1 [R′′′′]
[1]
  activity at 2.5 µM: 170%

## CCc1ccccc1/C=C\C(=O)Nc1ccc(S(=O)(=O)Nc2nc[nH]n2)cc1 [R″]
[1]
  activity at 5 µM: 290%

## Cc1ccnc(NS(=O)(=O)c2ccc(NC(=O)/C=C/c3cccc(Cl)c3)cc2)n1 [S]
Rattus norvegicus, Neuron, compound concentration 1.4 μM, midbrain culture, read-out: DA uptake % of control
  activity at 1.4 µM: 220%

## O=C(CCN1C(=O)S/C(=C\c2ccc(Cl)cc2)C1=O)Nc1ccc(S(=O)(=O)Nc2nccs2)cc1 [S′]
[1]
  activity at 1.25 µM: 150%

## COc1ccc(/C=C/C(=O)Nc2ccc(S(=O)(=O)Nc3nnc[nH]3)cc2)cc1 [S′′′]
[1]
  activity at 10 µM: 190%

## CCOc1cccc(/C=C/C(=O)Nc2ccc(S(=O)(=O)Nc3nccs3)cc2)c1 [S′′′′]
[1]
  activity at 5 µM: 170%

## O=C(/C=C/c1cccc(F)c1)Nc1ccc(S(=O)(=O)Nc2nc[nH]n2)cc1 [S″]
[1]
  activity at 2.5 µM: 280%

## Cc1cccc(C(=O)Nc2ccc(S(=O)(=O)Nc3nccs3)cc2)c1 [T]
[1]
  activity at 10 µM: 140%

## O=C(Nc1ccc(S(=O)(=O)Nc2nccs2)cc1)c1sc2cc(Cl)ccc2c1Cl [T′]
[1]
  activity at 0.6 µM: 140%

## O=C(/C=C/c1ccccc1)Nc1ccc(S(=O)(=O)Nc2nncs2)cc1 [T′′′]
[1]
  activity at 40 µM: 150%

## O=C(/C=C/c1ccc([N+](=O)[O-])cc1)Nc1ccc(S(=O)(=O)Nc2nccs2)cc1 [T′′′′]
[1]
  activity at 5 µM: 180%

## Cc1ccccc1/C=C/C(=O)Nc1ccc(S(=O)(=O)Nc2nccs2)cc1 [T″]
[1]
  activity at 2.5 µM: 230%

## CCc1nnc(NS(=O)(=O)c2ccc(NC(=O)/C=C/c3ccc(OC)cc3OC)cc2)s1 [U]
[1]
  activity at 10 µM: 150%

## CC(C)(C)c1cc(Br)ccc1OCC(=O)Nc1ccc(S(=O)(=O)Nc2nccs2)cc1 [U′]
[1]
  activity at 0.6 µM: 140%

## O=C(/C=C/c1ccccc1Cl)Nc1ccc(S(=O)(=O)Nc2nncs2)cc1 [U′′′]
[1]
  activity at 10 µM: 180%

## O=C(/C=C/c1c(Cl)cccc1Cl)Nc1ccc(S(=O)(=O)Nc2nccs2)cc1 [U′′′′]
[1]
  activity at 1.25 µM: 290%

## O=C(/C=C/c1ccccc1Br)Nc1ccc(S(=O)(=O)Nc2ccccn2)cc1 [U″]
[1]
  activity at 2.5 µM: 210%

## O=C(Nc1ccc(S(=O)(=O)Nc2nccs2)cc1)c1cccc(C(F)(F)F)c1 [V]
[1]
  activity at 10 µM: 220%

## O=C(Nc1ccc(S(=O)(=O)Nc2nccs2)cc1)c1cncc(Br)c1 [V′]
[1]
  activity at 40 µM: 130%

## O=C(/C=C/c1cccc(O)c1)Nc1ccc(S(=O)(=O)Nc2nncs2)cc1 [V′′′]
[1]
  activity at 2.5 µM: 160%

## O=C(/C=C/c1cccc(OC(F)(F)F)c1)Nc1ccc(S(=O)(=O)Nc2nccs2)cc1 [V′′′′]
[1]
  activity at 1.25 µM: 200%

## O=C(/C=C/c1ccc(Cl)cc1Cl)Nc1ccc(S(=O)(=O)Nc2nccs2)cc1 [V″]
Rattus norvegicus, Neuron, compound concentration 0.3 μM, midbrain culture, read-out: DA uptake % of control
  activity at 0.3 µM: 250%

## CCc1nnc(NS(=O)(=O)c2ccc(NC(=O)/C=C/c3ccc(F)cc3)cc2)s1 [W]
[1]
  activity at 5 µM: 180%

## CCCCCCCC(=O)Nc1ccc(S(=O)(=O)Nc2nccs2)cc1 [W′]
[1]
  activity at 10 µM: 200%

## COc1ccccc1/C=C/C(=O)Nc1ccc(S(=O)(=O)NC(=N)/C=C(\C)O)cc1 [W′′′]
[1]
  activity at 2.5 µM: 140%

## O=C(/C=C/c1ccc(F)cc1Cl)Nc1ccc(S(=O)(=O)Nc2nccs2)cc1 [W′′′′]
[1]
  activity at 1.25 µM: 190%

## O=C(/C=C/c1cc2c(cc1Br)OCO2)Nc1ccc(S(=O)(=O)Nc2nccs2)cc1 [W″]
[1]
  activity at 1.25 µM: 330%

## CCc1nnc(NS(=O)(=O)c2ccc(NC(=O)c3ccc(Cl)cc3)cc2)s1 [X]
[1]
  activity at 20 µM: 140%

## O=C(/C=C/c1ccc(Br)cc1)Nc1ccc(S(=O)(=O)Nc2nc[nH]n2)cc1 [X′]
  cytotoxicity in midbrain culture: no cytotoxicity
[1]
  activity at 0.6 µM: 290%
[2]
  pEC50: ~6.70

## C/C(O)=C\C(=N)NS(=O)(=O)c1ccc(NC(=O)/C=C/c2ccccc2)cc1 [X′′′]
[1]
  activity at 5 µM: 140%

## Cc1ccccc1/C=C/C(=O)Nc1ccc(S(=O)(=O)Nc2nc[nH]n2)cc1 [X′′′′]
[1]
  activity at 1.25 µM: 260%

## O=C(/C=C/c1cc(C(F)(F)F)ccc1C(F)(F)F)Nc1ccc(S(=O)(=O)Nc2nccs2)cc1 [X″]
[1]
  activity at 1.25 µM: 245%

## COc1ccc(/C=C/C(=O)Nc2ccc(S(=O)(=O)Nc3cc(C)nc(C)n3)cc2)cc1OC [Y]
[1]
  activity at 40 µM: 160%

## O=C(Nc1ccc(S(=O)(=O)Nc2nc[nH]n2)cc1)c1ccc2ccccc2c1 [Y′]
  cytotoxicity in midbrain culture: no cytotoxicity
[1]
  activity at 1.25 µM: 290%
[2]
  pEC50: ~6.70
